Measured values taken from patent US10174053B2, “2 substituted cephem compounds” (Glaxo Group Limited, priority 2012, dated 2019).
Values after ≈ are worked out from the molar mass of the structure shown. Read-outs that look alike come from different tables or passages of the source.

Tests used:
Assay in all cases: In vitro antimicrobial activity, MIC by broth microdilution (CLSI)
Format in all cases: cell-based
K. pneumoniae SR01358 = settings: for MIC: Klebsiella pneumoniae
In short: (§1)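 MIC (μg/mL) by CLSI broth microdilution, inoculum 5×10^5 cfu/mL, in cation-adjusted Iso-Sensitest broth containing human apo-transferrin.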

E. Coli JMI1890 = settings: for MIC: Escherichia coli, read-out: Minimum Inhibitory Concentration (MIC) E. Coli JMI:1890
In short: as §1

A. baumannii JMI7 = settings: for MIC: Acinetobacter baumannii
In short: as §1

A. baumannii JMI2346 = settings: for MIC: Acinetobacter baumannii
In short: as §1

[1] = SR01358, KPC-2, ESBL and KPC-type carbapenemase producing strain, 5×10^5 cfu/mL, cation-adjusted Iso-Sensitest broth containing human Apo-transferrin, read-out: Minimum Inhibitory Concentration (MIC) K. pneumoniae SR01358
[2] = PER-1, TEM-1, ESBL producing strain, 5×10^5 cfu/mL, cation-adjusted Iso-Sensitest broth containing human Apo-transferrin
[3] = JMI7, PER-1, OXA-23, 51, ESBL and OXA-type carbapenemase producing strain, 5×10^5 cfu/mL, cation-adjusted Iso-Sensitest broth containing human Apo-transferrin, read-out: Minimum Inhibitory Concentration (MIC) A. baumannii JMI:7
[4] = JMI2346, OXA-51, TEM, ESBL and OXA-type carbapenemase producing strain, 5×10^5 cfu/mL, cation-adjusted Iso-Sensitest broth containing human Apo-transferrin, read-out: Minimum Inhibitory Concentration (MIC) A. baumannii JMI:2346
[5] = KPC-2, ESBL and KPC-type carbapenemase producing strain, 5×10^5 cfu/mL, cation-adjusted Iso-Sensitest broth containing human Apo-transferrin
[6] = PER-1, OXA-23, 51, ESBL and OXA-type carbapenemase producing strain, 5×10^5 cfu/mL, cation-adjusted Iso-Sensitest broth containing human Apo-transferrin
[7] = OXA-51, TEM, ESBL and OXA-type carbapenemase producing strain, 5×10^5 cfu/mL, cation-adjusted Iso-Sensitest broth containing human Apo-transferrin

C[C@@H]1S[C@@H]2[C@H](NC(=O)/C(=N\OC(C)(C)C(=O)O)c3csc(N)n3)C(=O)N2C(C(=O)[O-])=C1C[N+]12CCC(Cn3ncc4cc(O)c(O)c(Cl)c4c3=O)(CC1)CC2 [Compound I-125]
MIC (K. pneumoniae SR01358; [1]): ≤ 0.031 µg/mL
MIC (E. Coli JMI1890; [2]): 0.125 µg/mL (≈ 0.153 µM)
MIC (A. baumannii JMI7; [3]): 0.5 µg/mL (≈ 0.612 µM)
MIC (A. baumannii JMI2346; [4]): 8 µg/mL (≈ 9.79 µM)

C[C@@H]1S[C@@H]2[C@H](NC(=O)/C(=N\OC(C)(C)C(=O)O)c3csc(N)n3)C(=O)N2C(C(=O)[O-])=C1C[N+]12CCC(Cn3ncc4cc(O)c(O)cc4c3=O)(CC1)C2 [Compound I-126]
MIC (K. pneumoniae SR01358; [1]): ≤ 0.031 µg/mL
MIC (E. Coli JMI1890; [2]): 0.063 µg/mL (≈ 0.0819 µM)
MIC (A. baumannii JMI7; [3]): 0.25 µg/mL (≈ 0.325 µM)
MIC (A. baumannii JMI2346; [4]): 0.5 µg/mL (≈ 0.65 µM)

CO/N=C(\C(=O)NCC12CC[N+](CC3=C(COO)N4C(=O)[C@@H](NC(=O)/C(=N\OC(C)(C)C(=O)[O-])c5csc(N)n5)[C@H]4S[C@H]3C)(CC1)CC2)c1cc(O)c(O)c(Cl)c1 [Compound I-131]
Minimum Inhibitory Concentration (MIC) K. pneumoniae SR01358 (K. pneumoniae SR01358; [5]): 0.063 µg/mL
Minimum Inhibitory Concentration (MIC) E. Coli JMI:1890 (E. Coli JMI1890; [2]): 0.125 µg/mL
Minimum Inhibitory Concentration (MIC) A. baumannii JMI:7 (A. baumannii JMI7; [6]): 2 µg/mL
Minimum Inhibitory Concentration (MIC) A. baumannii JMI:2346 (A. baumannii JMI2346; [7]): 2 µg/mL

CO/N=C(\C(=O)NCC12CC[N+](CC3=C(COO)N4C(=O)[C@@H](NC(=O)/C(=N\OC(C)(C)C(=O)[O-])c5csc(N)n5)[C@H]4S[C@H]3C)(CC1)CC2)c1cc(O)c(O)c(F)c1 [Compound I-132]
Minimum Inhibitory Concentration (MIC) K. pneumoniae SR01358 (K. pneumoniae SR01358; [5]): ≤0.031 µg/mL
Minimum Inhibitory Concentration (MIC) E. Coli JMI:1890 (E. Coli JMI1890; [2]): 0.25 µg/mL
Minimum Inhibitory Concentration (MIC) A. baumannii JMI:7 (A. baumannii JMI7; [6]): 1 µg/mL
Minimum Inhibitory Concentration (MIC) A. baumannii JMI:2346 (A. baumannii JMI2346; [7]): 4 µg/mL

C[C@@H]1S[C@@H]2[C@H](NC(=O)/C(=N\OC(C)(C)C(=O)[O-])c3csc(N)n3)C(=O)N2C(C(=O)O)=C1C[N+]12CCC(CNC(=O)/C(=N\O)c3cc(O)c(O)c(F)c3)(CC1)CC2 [Compound I-136]
MIC (K. pneumoniae SR01358; [1]): ≤ 0.031 µg/mL
MIC (E. Coli JMI1890; [2]): 0.5 µg/mL (≈ 0.611 µM)
MIC (A. baumannii JMI7; [3]): 1 µg/mL (≈ 1.22 µM)
MIC (A. baumannii JMI2346; [4]): 2 µg/mL (≈ 2.44 µM)

C[C@@H]1S[C@@H]2[C@H](NC(=O)/C(=N\OC(C)(C)C(=O)[O-])c3csc(N)n3)C(=O)N2C(C(=O)O)=C1C[N+]12CCC(CC1)N(C(=O)/C(=N\O)c1ccc(O)c(O)c1Cl)CC2 [Compound I-137]
MIC (K. pneumoniae SR01358; [1]): ≤ 0.031 µg/mL
MIC (E. Coli JMI1890; [2]): 0.25 µg/mL (≈ 0.304 µM)
MIC (A. baumannii JMI7; [3]): 0.5 µg/mL (≈ 0.609 µM)
MIC (A. baumannii JMI2346; [4]): 2 µg/mL (≈ 2.44 µM)

C[C@@H]1S[C@@H]2[C@H](NC(=O)/C(=N\OC(C)(C)C(=O)[O-])c3csc(N)n3)C(=O)N2C(C(=O)O)=C1C[N+]12CCC(CC1)N(C(=O)C(=NO)c1cc(O)c(O)c(Cl)c1)CC2 [Compound I-138]
MIC (K. pneumoniae SR01358; SR01358, read-out: Minimum Inhibitory Concentration (MIC) K. pneumoniae SR01358): ≤ 0.031 µg/mL
MIC (E. Coli JMI1890): 0.25 µg/mL (≈ 0.304 µM)
MIC (A. baumannii JMI7; JMI7, read-out: Minimum Inhibitory Concentration (MIC) A. baumannii JMI:7): 0.5 µg/mL (≈ 0.609 µM)
MIC (A. baumannii JMI2346; JMI2346, read-out: Minimum Inhibitory Concentration (MIC) A. baumannii JMI:2346): 4 µg/mL (≈ 4.87 µM)

C[C@@H]1S[C@@H]2[C@H](NC(=O)/C(=N\OC(C)(C)C(=O)[O-])c3csc(N)n3)C(=O)N2C(C(=O)O)=C1C[N+]12CCC(CNC(=O)c3cc(O)c(O)c(Cl)c3)(CC1)C2 [Compound I-142]
MIC (K. pneumoniae SR01358; [1]): ≤ 0.031 µg/mL
MIC (E. Coli JMI1890; [2]): 0.25 µg/mL (≈ 0.321 µM)
MIC (A. baumannii JMI7; [3]): 0.5 µg/mL (≈ 0.642 µM)
MIC (A. baumannii JMI2346; [4]): 2 µg/mL (≈ 2.57 µM)

C[C@@H]1S[C@@H]2[C@H](NC(=O)/C(=N\OC(C)(C)C(=O)O)c3csc(N)n3)C(=O)N2C(C(=O)[O-])=C1C[N+]12CCC(Cn3cnc4cc(O)c(O)cc4c3=O)(CC1)CC2 [Compound I-150, (4S,6R,7R)-7-((Z)-2-(2-aminothiazol-4-yl)-2-(((2-carboxypropan-2-yl)oxy)imino)acetamido)-3-((4-((6,7-dihydroxy-4-oxoquinazolin-3(4H)-yl)methyl)quinuclidin-1-ium-1-yl)methyl)-4-methyl-8-oxo-5-thia-1-azabicyclo[4.2.0]oct-2-ene-2-carboxylate]
MIC (K. pneumoniae SR01358; [1]): ≤ 0.031 µg/mL
MIC (E. Coli JMI1890; [2]): 2 µg/mL (≈ 2.55 µM)
MIC (A. baumannii JMI7; [3]): 0.5 µg/mL (≈ 0.639 µM)
MIC (A. baumannii JMI2346; [4]): 2 µg/mL (≈ 2.55 µM)

C[C@@H]1S[C@@H]2[C@H](NC(=O)/C(=N\OC(C)(C)C(=O)O)c3csc(N)n3)C(=O)N2C(C(=O)[O-])=C1C[N+]12CCC(CC1)N(C(=O)c1cn(C)c3cc(O)c(O)c(Cl)c3c1=O)CC2 [Compound I-160, (4S,6R,7R)-7-((Z)-2-(2-aminothiazol-4-yl)-2-(((2-carboxypropan-2-yl)oxy)imino)acetamido)-3-((4-(5-chloro-6,7-dihydroxy-1-methyl-4-oxo-1,4-dihydroquinoline-3-carbonyl)-1,4-diazabicyclo[3.2.2]nonan-1-ium-1-yl)methyl)-4-methyl-8-oxo-5-thia-1-azabicyclo[4.2.0]oct-2-ene-2-carboxylate]
MIC (K. pneumoniae SR01358; [1]): 0.063 µg/mL (≈ 0.0733 µM)
MIC (E. Coli JMI1890; [2]): ≤ 0.031 µg/mL
MIC (A. baumannii JMI7; [3]): 0.25 µg/mL (≈ 0.291 µM)
MIC (A. baumannii JMI2346; [4]): 0.5 µg/mL (≈ 0.582 µM)

C[C@@H]1S[C@@H]2[C@H](NC(=O)/C(=N\OC(C)(C)C(=O)O)c3csc(N)n3)C(=O)N2C(C(=O)[O-])=C1C[N+]12CCC(Cn3cnc4cc(O)c(O)c(Cl)c4c3=O)(CC1)CC2 [Compound I-161, (4S,6R,7R)-7-((Z)-2-(2-aminothiazol-4-yl)-2-(((2-carboxypropan-2-yl)oxy)imino)acetamido)-3-((4-((5-chloro-6,7-dihydroxy-4-oxoquinazolin-3(4H)-yl)methyl)quinuclidin-1-ium-1-yl)methyl)-4-methyl-8-oxo-5-thia-1-azabicyclo[4.2.0]oct-2-ene-2-carboxylate]
MIC (K. pneumoniae SR01358; [1]): ≤ 0.031 µg/mL
MIC (E. Coli JMI1890; [2]): 0.125 µg/mL (≈ 0.153 µM)
MIC (A. baumannii JMI7; [3]): 0.25 µg/mL (≈ 0.306 µM)
MIC (A. baumannii JMI2346; [4]): 4 µg/mL (≈ 4.89 µM)
